In US8057992B2, “Methods for identifying peptides that bind to intact oocytes” (Auburn University, priority 2007, dated 2011):
“Also recorded” adds a separate entry of the source. Ends that are not written are not given here.

Experiments:
[1] = system: ZP proteins on intact canine oocytes; assay: Phage display selection of ZP-binding peptides on intact canine oocytes; conditions: four rounds of selection, 1000 intact canine oocytes per round, 7-mer and 12-mer phage display libraries
Method: The phage display procedure developed herein utilizes intact oocytes surrounded by ZP proteins. In this procedure, ZP proteins remain on oocytes in their native conformation, unlike previously published selection protocols that use denatured ZPs immobilized on an artificial solid support. The procedure involves incubating isolated oocytes with a phage display library followed by washing of unbound phage. Oocytes are lysed, and bound phage are amplified in bacterial cultures. Enrichment in ZP-binding phage clones is achieved in four subsequent selection rounds, after which selected phage DNAs are sequenced and translated to obtain peptide sequences.
Collection of dog ova: Oocytes were isolated from dog ovaries obtained from spay/neuter clinics. All ovaries were collected from bitches (six months of age and older) undergoing elective ovariohysterectomy. Approximately 20-30 oocytes from each pair of ovaries were isolated. Ova were washed extensively, retrieved by visual inspection at 12× magnification, washed two additional times, pooled and frozen before the use. Oocytes isolated from dog ovaries were characterized by microscopic evaluations.
Identification of peptides that bind to ZP proteins on intact canine oocytes: Peptides that specifically bind to ZP proteins were identified by utilizing two phage display libraries purchased from New England BioLabs, including: PhD-C7C Peptide 7-mer Library Kit and PhD-12 Peptide Library Kit. The utilized approach selects peptides that mimic the sperm antigen at the level of the ZP-sperm binding (FIG. 2).
Four rounds of selection were performed using each library. For each selection round, an aliquot of the primary library was diluted in a blocking buffer and incubated with 1000 intact canine oocytes surrounded by ZP. After incubation, phages expressing peptides not bound to oocytes were washed away and the bound phages were recovered by lysis. […] Peptide sequences from phage display selection on intact dog oocytes surrounded by ZP included: LNSFLRS (SEQ ID NO:1), LSTALRS (SEQ ID NO:2), SSWYRGA (SEQ ID NO:3), TGTSTRA (SEQ ID NO:4), YLPIYTIPSMVY (SEQ ID NO:5), NNQSPILKLSIH (SEQ ID NO:6), and AHPNTAPIHPKF (SEQ ID NO:7). Based on the peptide sequences, the following five antigens were prepared: antigen 1—YLPVGGLRRIGG (SEQ ID NO:14), antigen 2—CLNSFLRSC-KGG (SEQ ID NO:9), antigen 3—YLPIYTIPSMVY-GG (SEQ ID NO:12), antigen 4—NNQSPILKLSIH-GG (SEQ ID NO:13), and antigen 5—CSSWYRGAC-KGGY (SEQ ID NO:11).

[2] = system: canine sperm cells; assay: Sperm cell ELISA of serum from dogs immunized with antigen 4; type: in vivo; conditions: three dogs immunized with antigen 4; sperm cell ELISA at serum dilution 1:50 (FIG. 5)
[3] = system: dogs; assay: Peptide ELISA of serum from immunized dogs for anti-peptide antibodies; type: in vivo, dog
Method: Immunization of dogs with ZP-binding peptides conjugated to a carrier protein: The peptides were synthesized by Global Peptide Services (Fort Collins, Colo.) at a yield of 10-20 mg having 95% purity. Two of the selected peptides were 7 amino acids long and the other two were 12 amino acids long. Antigen was taken from the literature (6) to serve as a control. To assure maximum immunogenicity, the peptides were conjugated to keyhole-limpet hemocyanin (KLH), a carrier protein. For vaccinations, the antigen was formulated to include: 250 μg of KLH conjugated peptide mixed with aluminum hydroxide adjuvant (Alhydrogel 85) and 100 μg canine specific immunostimulatory oligodeoxynucleotide (CpG). Four of the selected peptides and one control peptide were injected intramusculary into each dog (one dog/peptide). Booster immunizations were given twice to achieve high titer antisera. Each immunized dog served as his/her own control since none were expected to have preexisting antibodies to the selected peptides.
Evaluation of serum collected from immunized dogs for anti-ZP-binding peptide antibodies: Serum samples were collected from all dogs prior to immunization and biweekly or monthly thereafter during a 12-month period. The samples were tested for the presence of anti-peptide antibodies in a peptide ELISA format. […] The immunization scheme was as described above.

| Substance | binding to ZP (peptide sequences of phage selected on intact dog oocytes) [1] | also measured |
| --- | --- | --- |
| YLPIYTIPSMVY (Phage library random peptide insert) [SEQ ID NO:5] | responsible for binding to ZP | – |
| NNQSPILKLSIH-GG (NNQSPILKLSIHGG; also: conjugated to carrier protein) [antigen 4] | – | binding of raised antibodies to canine sperm cells (anti-sperm antibody levels) [2]: bind to canine sperm cells; immunogenicity: anti-peptide antibody levels in serum ([3]; one dog per antigen, 250 μg KLH conjugated peptide with aluminum hydroxide adjuvant and CpG, intramuscular, two boosts, peptide ELISA at serum dilution 1:6400 (FIG. 3)): specific anti-peptide antibodies at high levels; also recorded: high immunogenic properties; titers of anti-peptide antibodies ([3]; three additional dogs, same immunization scheme, peptide ELISA at serum dilution 1:6400 (FIG. 4)): high titers of anti-peptide antibodies |
| LSTALRS (Phage library random peptide insert) [SEQ ID NO:2] | responsible for binding to ZP | – |
| NNQSPILKLSIH (Phage library random peptide insert) [SEQ ID NO:6] | responsible for binding to ZP | – |
| AHPNTAPIHPKF (Phage library random peptide insert) [SEQ ID NO:7] | responsible for binding to ZP | – |
| TGTSTRA (Phage library random peptide insert) [SEQ ID NO:4] | responsible for binding to ZP | – |
| SSWYRGA (Phage library random peptide insert) [SEQ ID NO:3] | responsible for binding to ZP | – |
| LNSFLRS (Phage library random peptide insert) [SEQ ID NO:1] | responsible for binding to ZP | – |
